{"source": "patent US6667387B1", "about": "“HCV core peptides” (priority 1992, dated 2003)", "key": {"[1]": {"experiment": "ELISA with seronegative / negative control sera (specificity)", "assay_type": "binding, human", "summary_of_the_method": "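Specificity readout is OD at 450 nm (HRP goat anti-human Ig, TMB/H2O2, sulfuric acid stop), with ≥0.250 counted positive. Seronegative donor sera (typically 1:100, 1 h, 37° C) were applied to casein-blocked wells coated with peptide directly or via streptavidin capture of biotinylated peptide.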"}, "[2]": {"system": "antibodies in sera from HCV-seropositive donors", "experiment": "ELISA with HCV antibody-positive sera (biotinylated peptides on streptavidin- or avidin-coated plates, unbiotinylated peptides coated directly)", "assay_type": "binding, human", "settings": "for PEPTIDE ELISA (O.D.): Table 12, biotinylated 20-mers", "summary_of_the_method": "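Peptides coated either directly at 2–5 or 3 μg/ml in carbonate buffer pH 9.6, or biotinylated at 1 μg/ml on streptavidin-coated wells (3 μg/ml). Plates casein-blocked, then human sera (1:100 or 1:20) incubated 1 h at 37° C. Bound antibody detected with HRP anti-human Ig/TMB, read as OD450.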"}}, "note": "Ends that are not written are not given here."}
{"sequence": "ETWKKPDYEPPVVHGCPLPP", "values": [{"measurement": "optical density (450 nm)", "setting": "[1]; Table 4G, negative serum", "result": 0.001}, {"measurement": "optical density (450 nm)", "setting": "[1]; Table 5, sample 1747 (negative), peptide concentration 0.01 micrograms per milliliter, listed as HCV peptide XVIII", "result": 0.042}, {"measurement": "optical density (450 nm)", "setting": "[1]; Table 5, sample 1747 (negative), peptide concentration 0.03 micrograms per milliliter, listed as HCV peptide XVIII", "result": 0.058}, {"measurement": "optical density (450 nm)", "setting": "[1]; Table 5, sample 1747 (negative), peptide concentration 0.1 micrograms per milliliter, listed as HCV peptide XVIII", "result": 0.044}, {"measurement": "optical density (450 nm)", "setting": "[1]; Table 5, sample 1747 (negative), peptide concentration 0.3 micrograms per milliliter, listed as HCV peptide XVIII", "result": 0.061}, {"measurement": "optical density (450 nm)", "setting": "[1]; Table 5, sample 1747 (negative), peptide concentration 1.0 micrograms per milliliter, listed as HCV peptide XVIII", "result": 0.042}, {"measurement": "optical density (450 nm)", "setting": "[1]; Table 5, sample 1747 (negative), peptide concentration 3.0 micrograms per milliliter, listed as HCV peptide XVIII", "result": 0.047}, {"measurement": "optical density (450 nm)", "setting": "[1]; Table 5, sample 1781 (negative), peptide concentration 0.01 micrograms per milliliter, listed as HCV peptide XVIII", "result": 0.045}, {"measurement": "optical density (450 nm)", "setting": "[1]; Table 5, sample 1781 (negative), peptide concentration 0.03 micrograms per milliliter", "result": 0.051}, {"measurement": "optical density (450 nm)", "setting": "[1]; Table 5, sample 1781 (negative), peptide concentration 0.1 micrograms per milliliter, listed as HCV peptide XVIII", "result": 0.048}, {"measurement": "optical density (450 nm)", "setting": "[1]; Table 5, sample 1781 (negative), peptide concentration 0.3 micrograms per milliliter, listed as HCV peptide XVIII", "result": 0.048}, {"measurement": "optical density (450 nm)", "setting": "[1]; Table 5, sample 1781 (negative), peptide concentration 1.0 micrograms per milliliter, listed as HCV peptide XVIII", "result": 0.048}, {"measurement": "optical density (450 nm)", "setting": "[1]; Table 5, sample 1781 (negative), peptide concentration 3.0 micrograms per milliliter, listed as HCV peptide XVIII", "result": 0.053}, {"measurement": "optical density (450 nm)", "setting": "[1]; Table 8, serum 1782 (blood donor), Avidin", "result": 0.053}, {"measurement": "optical density (450 nm)", "setting": "[1]; Table 8, serum 1784 (blood donor), Avidin", "result": 0.047}, {"measurement": "optical density (450 nm)", "setting": "[1]; Table 8, serum 1785 (blood donor), Avidin", "result": 0.047}, {"measurement": "optical density (450 nm)", "setting": "[1]; Table 8, serum 1794 (blood donor), Avidin", "result": 0.104}, {"measurement": "optical density (450 nm)", "setting": "[2]; Table 4G, serum 1, 20-fold dilution", "result": 2.691}, {"measurement": "optical density (450 nm)", "setting": "[2]; Table 4G, serum 33, 20-fold dilution", "result": 1.813}, {"measurement": "optical density (450 nm)", "setting": "[2]; Table 4G, serum 39, 20-fold dilution", "result": 0.213}, {"measurement": "optical density (450 nm)", "setting": "[2]; Table 4G, serum 47, 20-fold dilution", "result": 2.611}, {"measurement": "optical density (450 nm)", "setting": "[2]; Table 4G, serum 79, 20-fold dilution", "result": 2.105}, {"measurement": "optical density (450 nm)", "setting": "[2]; Table 4G, serum 83, 20-fold dilution", "result": 1.232}, {"measurement": "optical density (450 nm)", "setting": "[2]; Table 4G, serum 88, 20-fold dilution", "result": 1.858}, {"measurement": "optical density (450 nm)", "setting": "[2]; Table 4G, serum 89, 20-fold dilution", "result": 2.309}, {"measurement": "optical density (450 nm)", "setting": "[2]; Table 4G, serum 91, 20-fold dilution", "result": 1.132}, {"measurement": "optical density (450 nm)", "setting": "[2]; Table 4G, serum 99, 20-fold dilution", "result": 1.526}, {"measurement": "optical density (450 nm)", "setting": "[2]; Table 4G, serum 104, 20-fold dilution", "result": 1.998}, {"measurement": "optical density (450 nm)", "setting": "[2]; Table 4G, serum 105, 20-fold dilution", "result": 2.053}, {"measurement": "optical density (450 nm)", "setting": "[2]; Table 4G, serum 110, 20-fold dilution", "result": 2.065}, {"measurement": "optical density (450 nm)", "setting": "[2]; Table 4G, serum 111, 20-fold dilution", "result": 1.542}, {"measurement": "optical density (450 nm)", "setting": "[2]; Table 4G, serum 112, 20-fold dilution", "result": 1.408}, {"measurement": "optical density (450 nm)", "setting": "[2]; Table 4G, serum 116, 20-fold dilution", "result": 1.978}, {"measurement": "optical density (450 nm)", "setting": "[2]; Table 4G, serum 120, 20-fold dilution", "result": 2.031}, {"measurement": "optical density (450 nm)", "setting": "[2]; Table 5, sample 8242 (positive), peptide concentration 0.01 micrograms per milliliter, listed as HCV peptide XVIII", "result": 1.185}, {"measurement": "optical density (450 nm)", "setting": "[2]; Table 5, sample 8242 (positive), peptide concentration 0.03 micrograms per milliliter, listed as HCV peptide XVIII", "result": 1.188}, {"measurement": "optical density (450 nm)", "setting": "[2]; Table 5, sample 8242 (positive), peptide concentration 0.1 micrograms per milliliter, listed as HCV peptide XVIII", "result": 0.946}, {"measurement": "optical density (450 nm)", "setting": "[2]; Table 5, sample 8242 (positive), peptide concentration 0.3 micrograms per milliliter, listed as HCV peptide XVIII", "result": 0.873}, {"measurement": "optical density (450 nm)", "setting": "[2]; Table 5, sample 8242 (positive), peptide concentration 1.0 micrograms per milliliter, listed as HCV peptide XVIII", "result": 0.839}, {"measurement": "optical density (450 nm)", "setting": "[2]; Table 5, sample 8242 (positive), peptide concentration 3.0 micrograms per milliliter, listed as HCV peptide XVIII", "result": 0.749}, {"measurement": "optical density (450 nm)", "setting": "[2]; Table 5, sample 8243 (positive), peptide concentration 0.01 micrograms per milliliter, listed as HCV peptide XVIII", "result": 0.462}, {"measurement": "optical density (450 nm)", "setting": "[2]; Table 5, sample 8243 (positive), peptide concentration 0.03 micrograms per milliliter, listed as HCV peptide XVIII", "result": 0.611}, {"measurement": "optical density (450 nm)", "setting": "[2]; Table 5, sample 8243 (positive), peptide concentration 0.1 micrograms per milliliter, listed as HCV peptide XVIII", "result": 0.661}, {"measurement": "optical density (450 nm)", "setting": "[2]; Table 5, sample 8243 (positive), peptide concentration 0.3 micrograms per milliliter, listed as HCV peptide XVIII", "result": 0.629}, {"measurement": "optical density (450 nm)", "setting": "[2]; Table 5, sample 8243 (positive), peptide concentration 1.0 micrograms per milliliter, listed as HCV peptide XVIII", "result": 0.627}, {"measurement": "optical density (450 nm)", "setting": "[2]; Table 5, sample 8243 (positive), peptide concentration 3.0 micrograms per milliliter, listed as HCV peptide XVIII", "result": 0.671}, {"measurement": "optical density (450 nm)", "setting": "[2]; Table 5, sample 8318 (positive), peptide concentration 0.01 micrograms per milliliter, listed as HCV peptide XVIII", "result": 1.711}, {"measurement": "optical density (450 nm)", "setting": "[2]; Table 5, sample 8318 (positive), peptide concentration 0.03 micrograms per milliliter, listed as HCV peptide XVIII", "result": 2.308}, {"measurement": "optical density (450 nm)", "setting": "[2]; Table 5, sample 8318 (positive), peptide concentration 0.1 micrograms per milliliter, listed as HCV peptide XVIII", "result": 2.409}, {"measurement": "optical density (450 nm)", "setting": "[2]; Table 5, sample 8318 (positive), peptide concentration 0.3 micrograms per milliliter, listed as HCV peptide XVIII", "result": 2.392}, {"measurement": "optical density (450 nm)", "setting": "[2]; Table 5, sample 8318 (positive), peptide concentration 1.0 micrograms per milliliter, listed as HCV peptide XVIII", "result": 2.396}, {"measurement": "optical density (450 nm)", "setting": "[2]; Table 5, sample 8318 (positive), peptide concentration 3.0 micrograms per milliliter, listed as HCV peptide XVIII", "result": 2.391}, {"measurement": "optical density (450 nm)", "setting": "[2]; Table 5, sample 8326 (positive), peptide concentration 0.01 micrograms per milliliter, listed as HCV peptide XVIII", "result": 1.848}, {"measurement": "optical density (450 nm)", "setting": "[2]; Table 5, sample 8326 (positive), peptide concentration 0.03 micrograms per milliliter, listed as HCV peptide XVIII", "result": 2.219}, {"measurement": "optical density (450 nm)", "setting": "[2]; Table 5, sample 8326 (positive), peptide concentration 0.1 micrograms per milliliter, listed as HCV peptide XVIII", "result": 2.331}, {"measurement": "optical density (450 nm)", "setting": "[2]; Table 5, sample 8326 (positive), peptide concentration 0.3 micrograms per milliliter, listed as HCV peptide XVIII", "result": 2.331}, {"measurement": "optical density (450 nm)", "setting": "[2]; Table 5, sample 8326 (positive), peptide concentration 1.0 micrograms per milliliter, listed as HCV peptide XVIII", "result": 2.331}, {"measurement": "optical density (450 nm)", "setting": "[2]; Table 5, sample 8326 (positive), peptide concentration 3.0 micrograms per milliliter, listed as HCV peptide XVIII", "result": 2.315}, {"measurement": "optical density (450 nm)", "setting": "[2]; Table 8, serum 8243 (HCV), Avidin", "result": 0.118}, {"measurement": "optical density (450 nm)", "setting": "[2]; Table 8, serum 8247 (HCV), Avidin", "result": 0.046}, {"measurement": "optical density (450 nm)", "setting": "[2]; Table 8, serum 8248 (HCV), Avidin", "result": 0.905}, {"measurement": "optical density (450 nm)", "setting": "[2]; Table 8, serum 8269 (HCV), Avidin", "result": 1.513}, {"measurement": "optical density (450 nm)", "setting": "[2]; Table 8, serum 8273 (HCV), Avidin", "result": 0.052}, {"measurement": "optical density (450 nm)", "setting": "[2]; Table 8, serum 8278 (HCV), Avidin", "result": 0.052}, {"measurement": "optical density (450 nm)", "setting": "[2]; Table 8, serum 8285 (HCV), Avidin", "result": 0.146}, {"measurement": "optical density (450 nm)", "setting": "[2]; Table 8, serum 8290 (HCV), Avidin", "result": 2.323}, {"measurement": "optical density (450 nm)", "setting": "[2]; Table 8, serum 8291 (HCV), Avidin", "result": 0.049}, {"measurement": "PEPTIDE ELISA (O.D.)", "setting": "[2]; serum 0843", "result": 0.127}, {"measurement": "PEPTIDE ELISA (O.D.)", "setting": "[2]; serum 8240", "result": 1.511}, {"measurement": "PEPTIDE ELISA (O.D.)", "setting": "[2]; serum 8241", "result": 0.273}, {"measurement": "PEPTIDE ELISA (O.D.)", "setting": "[2]; serum 8242", "result": 2.453}, {"measurement": "PEPTIDE ELISA (O.D.)", "setting": "[2]; serum 8332", "result": 2.290}, {"measurement": "PEPTIDE ELISA (O.D.)", "setting": "[2]; serum 8339", "result": 2.757}, {"measurement": "PEPTIDE ELISA (O.D.)", "setting": "[2]; serum 8350", "result": 0.182}, {"measurement": "PEPTIDE ELISA (O.D.)", "setting": "[2]; serum 8377", "result": 1.378}, {"measurement": "PEPTIDE ELISA (O.D.)", "setting": "[2]; serum 8378", "result": 2.337}, {"measurement": "PEPTIDE ELISA (O.D.)", "setting": "[2]; serum 8388", "result": 2.358}]}
